# Measurements: patent publication US20250368632A1, “CR[…] AND CONJUGATES THEREOF” (Universitat Bielefeld, priority 2021, published 2025)
# Key:
# KB-V1 cells = assay: Resazurin cell viability (cytotoxicity) assay, 72 h incubation, KB-V1 cells (selected with vinblastine); format: cell-based; conditions: resazurin fluorescence, drug concentration at which vitality is 50%, read-out: IC50 values of cryptophycin compounds, KB-V1 cells
# Method: (§1) The KB-3-1 and KB—V1 cells were cultivated as a monolayer in DMEM (Dulbecco's modified Eagle medium) with glucose (4.5 g L^−1), L-glutamine, sodium pyruvate and phenol red, supplemented with 10% (KB-3-1) and 15% (KB—V1) fetal bovine serum. 50 μg mL^−1 gentamycin is added for the KB—V1 cells. The cells were maintained at 37° C. and 5.3% CO2/humidified air. KB—V1 cells were continuously selected during cultivation with vinblastine sulfate (150 nM). On the day before the test, the cells (70% confluence) were detached with trypsin/ethylenediaminetetraacetic acid (EDTA) solution (0.05%/0.02% in DPBS) and plated in sterile 96-well plates in a density of 10,000 cells in 100 μL medium per well. The dilution series of the compounds were prepared from stock solutions in DMSO of concentrations of […]. The stock solutions were diluted with culture medium (15% FBS [KB—V1]; 10% FBS [KB-3-1]) at least 50 times. Some culture medium was added to the wells to adjust the volume of the wells to the wanted dilution factor. The dilution prepared from stock solution was added to the wells. Each concentration was tested in six replicates. Dilution series were prepared by pipetting liquid from well to well. The control contained the same concentration of DMSO as the first dilution. After incubation for 72 h at 37° C. and 5.3% CO2/humidified air, 30 μL of an aqueous resazurin solution (175 μM) was added to each well. The cells were incubated at the same conditions for 6 h. Subsequently, the fluorescence was measured. The excitation was effected at a wavelength of 530 nm, whereas the emission was recorded at a wavelength of 588 nm. The IC50 values were calculated as a sigmoidal dose response curve using GraphPad Prism 4.03. The IC50 values equal the drug concentrations, at which vitality is 50%.
# KB-3-1 cells = assay: Resazurin cell viability (cytotoxicity) assay, 72 h incubation, KB-3-1 cells; format: cell-based; conditions: resazurin fluorescence, drug concentration at which vitality is 50%, read-out: IC50 values of cryptophycin compounds, KB-3-1 cells
# Method: as §1
Substance,IC50 (KB-V1 cells),IC50 (KB-3-1 cells)
Cryptophycin-[uD-Lys(Alloc)] [Compound G5],> 500 nM,4200 nM
Cryptophycin-[uD-Thr] [Compound Z7],300 nM,0.026 nM
"Cryptophycin-uD[Dab(Alloc,Me)] [Compound B10]",90 nM,0.021 nM
Cryptophycin-[uD-HSe] [Compound Y8],> 500 nM,0.8 nM
Cryptophycin-[uD-Met] [Compound T7],49 nM,0.02 nM
"Cryptophycin [Compound H8, Cryptophycin [uD-Ser]]",1100 nM,0.12 nM
Cryptophycin-[uD-Thr(Allyl)] [Compound Z6],> 1000 nM,1.5 nM
"Cryptophycin-uD[Dap(Alloc,Me)] [Compound P10]",890 nM,0.045 nM
Cryptophycin-[uD-Dab(Alloc)] [Compound C5],400 nM,0.22 nM
Cryptophycin-[uD-Dab] [Compound C6],> 50000 nM,1 nM
Cryptophycin-[uD-Lys] [Compound G6],> 500 nM,60000 nM
Cryptophycin-uD[Dap(Me)] [Compound P11],21 nM,0.0087 nM
Cryptophycin-[uD-HSe(AII)] [Compound Y7],93 nM,0.018 nM
"Cryptophycin-uD[Dap(AII, Me)] [Compound C10]",0.87 nM,0.021 nM
Cryptophycin-[uD-Dab-Me2] [Compound C7],210 nM,0.038 nM
Cryptophycin-[uD-Ser(AII)] [Compound H7],29 nM,0.011 nM
